In PubChem BioAssay (NCI):
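Briefly, cells in 96-well plates were exposed to five compound concentrations for 48 h, and endpoints were estimated by linear interpolation. TGI denotes the concentration required for complete inhibition of growth.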

How the values were obtained:
Assay in all cases: NCI anticancer screen, dose series, 48 h
[1] = system: BT-549 breast
[2] = system: HOP-62 NSCLC
[3] = system: MOLT-4 leukemia
[4] = system: SN12C renal
[5] = system: SF-295 CNS
[6] = system: IGROV1 ovarian
[7] = system: A498 renal
[8] = system: SK-MEL-5 melanoma
[9] = system: KM12 colon
[10] = system: UACC-257 melanoma
[11] = system: SK-MEL-2 melanoma
[12] = system: NCI-H522 lung
[13] = system: CCRF-CEM leukemia
[14] = system: T-47D breast
[15] = system: M14 melanoma
[16] = system: SK-MEL-28 melanoma
[17] = system: OVCAR-4 ovarian
[18] = system: HCT-116 colon
[19] = system: CAKI-1 renal
[20] = system: EKVX NSCLC
[21] = system: K-562 leukemia
[22] = system: MCF7 breast
[23] = system: HT29 colon
[24] = system: NCI-H460 lung
[25] = system: PC-3 prostate
[26] = system: A549 NSCLC
[27] = system: OVCAR-3 ovarian
[28] = system: SNB-19 CNS
[29] = system: SF-268 CNS
[30] = system: OVCAR-8 ovarian
[31] = system: HCT-15 colon
[32] = system: SF-539 CNS
[33] = system: TK-10 renal
[34] = system: U251 CNS
[35] = system: LOX IMVI melanoma
[36] = system: NCI/ADR-RES ovarian
[37] = system: RPMI-8226 leukemia
[38] = system: MDA-MB-435
[39] = system: SW-620 colon
[40] = system: ACHN renal
[41] = system: NCI-H23 lung
[42] = system: OVCAR-5 ovarian
[43] = system: 786-0 renal
[44] = system: DU-145 prostate
[45] = system: HS 578T breast
[46] = system: MDA-N
[47] = system: HL-60(TB) leukemia
[48] = system: SK-OV-3 ovarian
[49] = system: NCI-H226 lung
[50] = system: SNB-75 CNS
[51] = system: MDA-MB-231 breast
[52] = system: UACC-62 melanoma
[53] = system: COLO 205 colon
[54] = system: HCC-2998 colon
[55] = system: HOP-92 NSCLC
[56] = system: RXF 393 renal
[57] = system: SR leukemia
[58] = system: UO-31 renal
[59] = system: MALME-3M melanoma

Compound: O=C(Nc1ccn(C2CC(O)C(CO)O2)c(=O)n1)c1ccccc1 (stereo unspecified)
- TGI [1]: > 100 µM
- TGI [2]: > 100 µM
- TGI [3]: > 100 µM
- TGI [4]: > 100 µM
- TGI [5]: > 100 µM
- TGI [6]: > 100 µM
- TGI [7]: > 100 µM
- TGI [8]: > 100 µM
- TGI [9]: > 100 µM
- TGI [10]: > 100 µM
- TGI [11]: > 100 µM
- TGI [12]: > 100 µM
- TGI [13]: > 100 µM
- TGI [14]: > 100 µM
- TGI [15]: > 100 µM
- TGI [16]: > 100 µM
- TGI [17]: > 100 µM
- TGI [18]: > 100 µM
- TGI [19]: > 100 µM
- TGI [20]: > 100 µM
- TGI [21]: > 100 µM
- TGI [22]: > 100 µM
- TGI [23]: > 100 µM
- TGI [24]: > 100 µM
- TGI [25]: > 100 µM
- TGI [26]: > 100 µM
- TGI [27]: > 100 µM
- TGI [28]: > 100 µM
- TGI [29]: > 100 µM
- TGI [30]: > 100 µM
- TGI [31]: > 100 µM
- TGI [32]: > 100 µM
- TGI [33]: > 100 µM
- TGI [34]: > 100 µM
- TGI [35]: > 100 µM
- TGI [36]: > 100 µM
- TGI [37]: > 100 µM
- TGI [38]: > 100 µM
- TGI [39]: > 100 µM
- TGI [40]: > 100 µM
- TGI [41]: > 100 µM
- TGI [42]: > 100 µM
- TGI [43]: > 100 µM
- TGI [44]: > 100 µM
- TGI [45]: > 100 µM
- TGI [46]: > 100 µM
- TGI [47]: > 100 µM
- TGI [48]: > 100 µM
- TGI [49]: > 100 µM
- TGI [50]: > 100 µM
- TGI [51]: > 100 µM
- TGI [52]: > 100 µM
- TGI [53]: > 100 µM

Compound: CCOc1cc(NC(C)=O)ccc1C(=O)NN1C(=O)/C(=C/c2ccco2)N=C1c1ccccc1
- TGI [1]: > 100 µM
- TGI [54]: > 100 µM
- TGI [55]: > 100 µM
- TGI [2]: > 100 µM
- TGI [3]: > 100 µM
- TGI [4]: > 100 µM
- TGI [5]: > 100 µM
- TGI [6]: > 100 µM
- TGI [7]: > 100 µM
- TGI [8]: > 100 µM
- TGI [9]: > 100 µM
- TGI [56]: > 100 µM
- TGI [10]: > 100 µM
- TGI [11]: > 100 µM
- TGI [12]: > 100 µM
- TGI [13]: > 100 µM
- TGI [14]: > 100 µM
- TGI [15]: > 100 µM
- TGI [16]: > 100 µM
- TGI [17]: > 100 µM
- TGI [18]: > 100 µM
- TGI [19]: > 100 µM
- TGI [20]: > 100 µM
- TGI [21]: > 100 µM
- TGI [22]: > 100 µM
- TGI [23]: > 100 µM
- TGI [24]: > 100 µM
- TGI [25]: > 100 µM
- TGI [26]: > 100 µM
- TGI [27]: > 100 µM
- TGI [57]: > 100 µM
- TGI [28]: > 100 µM
- TGI [58]: > 100 µM
- TGI [29]: > 100 µM
- TGI [30]: > 100 µM
- TGI [31]: > 100 µM
- TGI [32]: > 100 µM
- TGI [59]: > 100 µM
- TGI [35]: > 100 µM
- TGI [36]: > 100 µM
- TGI [37]: > 100 µM
- TGI [38]: > 100 µM
- TGI [39]: > 100 µM
- TGI [40]: > 100 µM
- TGI [41]: > 100 µM
- TGI [42]: > 100 µM
- TGI [43]: > 100 µM
- TGI [44]: > 100 µM
- TGI [45]: > 100 µM
- TGI [46]: > 100 µM
- TGI [47]: > 100 µM
- TGI [48]: > 100 µM
- TGI [49]: > 100 µM
- TGI [50]: > 100 µM
- TGI [52]: > 100 µM
- TGI [53]: > 100 µM

Compound: COc1cc(/C=N/NC(=O)c2ccc(NC(C)=O)cc2OC)ccc1O
- TGI [1]: > 100 µM
- TGI [55]: 54.3 µM
- TGI [3]: > 100 µM
- TGI [4]: > 100 µM
- TGI [5]: > 100 µM
- TGI [6]: > 100 µM
- TGI [7]: > 100 µM
- TGI [8]: > 100 µM
- TGI [9]: > 100 µM
- TGI [56]: > 100 µM
- TGI [11]: 93.3 µM
- TGI [12]: > 100 µM
- TGI [13]: > 100 µM
- TGI [14]: > 100 µM
- TGI [15]: > 100 µM
- TGI [16]: > 100 µM
- TGI [17]: > 100 µM
- TGI [18]: > 100 µM
- TGI [19]: > 100 µM
- TGI [20]: > 100 µM
- TGI [21]: > 100 µM
- TGI [22]: > 100 µM
- TGI [23]: > 100 µM
- TGI [25]: > 100 µM
- TGI [26]: > 100 µM
- TGI [27]: > 100 µM
- TGI [57]: > 100 µM
- TGI [28]: > 100 µM
- TGI [58]: > 100 µM
- TGI [29]: > 100 µM
- TGI [30]: > 100 µM
- TGI [31]: > 100 µM
- TGI [32]: > 100 µM
- TGI [59]: > 100 µM
- TGI [35]: > 100 µM
- TGI [36]: > 100 µM
- TGI [37]: > 100 µM
- TGI [38]: > 100 µM
- TGI [39]: > 100 µM
- TGI [40]: > 100 µM
- TGI [41]: > 100 µM
- TGI [42]: > 100 µM
- TGI [43]: > 100 µM
- TGI [44]: > 100 µM
- TGI [45]: 81.6 µM
- TGI [46]: > 100 µM
- TGI [47]: > 100 µM
- TGI [48]: > 100 µM
- TGI [49]: > 100 µM
- TGI [50]: 73 µM
- TGI [52]: > 100 µM
- TGI [53]: > 100 µM
